{"source": "paper PMC7667029", "about": "“A Targeted Computational Screen of the SWEETLEAD Database Reveals FDA-Approved Compounds with Anti-Dengue Viral Activity” (mBio, 2020)", "key": {"[1]": {"test_system": "DENV-2 luciferase-expressing replicon", "assay": "Replicon luciferase assay in Huh7 cells", "assay_type": "cell-based, dengue virus", "conditions": "3 μM vandetanib, Huh7, up to 52 h posttransfection", "protocol": "(§1) FIG 5 Vandetanib and spautin-1 inhibit dengue maturation and egress in a VPS34-independent manner. […] Cells were pretreated for 1 h, infected for 1 h at an MOI of 0.5 PFU/cell, and posttreated for an additional 23 h. N = 4, one-way ANOVA with Dunnett’s multiple-comparison test. ns, not significant (P > 0.05); **, P < 0.01; ****, P < 0.0001. (C) Huh7 cells transfected with a luciferase-expressing RNA replicon were treated with 3 μM vandetanib (orange) or 1% DMSO vehicle control (black) for 1 h prior to transfection and up to 52 h posttransfection. Luciferase intensity was quantified as a measure of viral protein abundance. Luciferase intensity was shown as relative light units (RLU). The use of an RNA replicon that is directly transfected into cells reflects only translation and RNA replication steps of viral infection, not viral packaging or cell exit. N = 4, two-way ANOVA with Sikak’s multiple-comparison test. […] (D) VPS34 was not required for spautin-1 or vandetanib anti-dengue activity. […]\nA dengue replicon derived from the dengue virus strain 16681 expressing Renilla luciferase and dengue nonstructural proteins has been previously established ([7], [64]). […] Transfected cells were harvested and analyzed using the Renilla luciferase assay system (Promega BioSystems). Luciferase intensity was measured with a GloMax luminometer (10-s signal integration; Promega BioSystems)."}, "[2]": {"test_system": "dengue virus", "assay": "Antiviral activity in VPS34 knockout Huh7 cells", "assay_type": "cell-based", "conditions": "5 μM compound, MOI 0.5, 24 hpi", "protocol": "as §1, with “activity. Wild-type and VPS34 knockout Huh7 cells were treated with 5 μM spautin-1, 5 μM vandetanib, or DMSO. Cells were pretreated, infected at an MOI of 0.5, and posttreated as described above for panels A and B. At 24 hpi, cellular supernatant was collected and titered by plaque assay. N ≥ 3. One-way ANOVA with Dunnett’s multiple-comparison test; *, P < 0.05; **, P < 0.01; ***, P < 0.001; ****, P < 0.0001.” for “activity.”"}, "[3]": {"test_system": "dengue virus", "assay": "Extracellular and intracellular virus quantification in Huh7 cells", "assay_type": "cell-based", "conditions": "IC90 dose (spautin-1 2.4 μM, vandetanib 3.6 μM), Huh7, 24 hpi", "protocol": "FIG 5 Vandetanib and spautin-1 inhibit dengue maturation and egress in a VPS34-independent manner. […] Cells were pretreated for 1 h, infected for 1 h at an MOI of 0.5 PFU/cell, and posttreated for an additional 23 h. N = 4, one-way ANOVA with Dunnett’s multiple-comparison test. ns, not significant (P > 0.05); **, P < 0.01; ****, P < 0.0001. (C) Huh7 cells transfected with a luciferase-expressing RNA replicon were treated with 3 μM vandetanib (orange) or 1% DMSO vehicle control (black) for 1 h prior to transfection and up to 52 h posttransfection. Luciferase intensity was quantified as a measure of viral protein abundance. Luciferase intensity was shown as relative light units (RLU). The use of an RNA replicon that is directly transfected into cells reflects only translation and RNA replication steps of viral infection, not viral packaging or cell exit. N = 4, two-way ANOVA with Sikak’s multiple-comparison test. […] (D) VPS34 was not required for spautin-1 or vandetanib anti-dengue activity. Wild-type and VPS34 knockout Huh7 cells were treated with 5 μM spautin-1, 5 μM vandetanib, or DMSO. Cells were pretreated, infected at an MOI of 0.5, and posttreated as described above for panels A and B. At 24 hpi, cellular supernatant was collected and titered by plaque assay. N ≥ 3. One-way ANOVA with Dunnett’s multiple-comparison test; *, P < 0.05; **, P < 0.01; ***, P < 0.001; ****, P < 0.0001.\nAfter 1 h, virus inoculum was aspirated and replaced with medium containing compounds or 1% DMSO. After 24-h total infection, extracellular virus was collected in cellular supernatant and quantified by plaque assay. To collect intracellular virus, cells were washed with PBS, incubated for 3 min at 4°C with high-salt buffer (1 M NaCl, 50 mM sodium bicarbonate [pH 9.5]) to detach cell-associated extracellular virus ([63]), washed twice with PBS, detached with 0.25% trypsin-EDTA, and isolated by centrifugation (500 × g, 5 min, 4°C). Infected cell pellets were resuspended in 750 μl cell culture medium, lysed by repeated freeze/thaw in liquid nitrogen followed by 37°C water bath. Debris was removed by centrifugation (3,200 × g, 5 min, 4°C), and infectious intracellular virus was quantified by BHK-21 plaque assay."}, "[4]": {"conditions": "ref PubChem database, cited from earlier work"}, "[5]": {"test_system": "DENV2", "assay": "DENV2-infected AGB6 mouse model (splenic titer, survival)", "assay_type": "in vivo, AGB6 mice", "conditions": "AGB6 mice, 15 mg/kg vandetanib twice daily, 15 mg/kg; for Splenic viral titer: 4 days postinfection; for Survival of infected mice: oral"}}, "note": "“Also recorded” adds a separate entry of the source."}
{"compound": "COc1cc2c(Nc3ccc(Br)cc3F)ncnc2cc1OCC1CCN(C)CC1", "note": "[Vandetanib, vandetanib]", "values": [{"measurement": "Luciferase production of replicon", "setting": "[1]", "value": "no effect on luciferase production; also recorded: no significant differences"}, {"measurement": "Antiviral activity in VPS34 knockout cells", "setting": "[2]", "value": "retained significant antiviral activity; also recorded: retained their ability to limit dengue virus egress"}, {"measurement": "Extracellular viral titer", "setting": "[3]", "value": "significantly reduced; also recorded: reduced extracellular virus"}, {"measurement": "Infectious intracellular virus", "setting": "[3]", "value": "unchanged; also recorded: abundant intracellular virus"}, {"measurement": "LD50", "setting": "[4]; Oral, single dose", "value": "> 1000", "unit": "mg/kg"}, {"measurement": "Acute toxicity in words (Table S2)", "setting": "[4]; healthy mice", "value": "only mildly toxic"}, {"measurement": "Splenic viral titer", "setting": "[5]", "value": "did not affect splenic titers"}, {"measurement": "Splenic viral titer", "setting": "[5]; listed as vandetanib", "value": "did not significantly impact splenic viral titer"}, {"measurement": "Survival of infected mice", "setting": "[5]", "value": "extend survival"}, {"measurement": "Survival of infected mice", "setting": "[5]; listed as vandetanib", "value": "significantly extended survival"}]}
